Results published in patent publication US6855512B2, “Methods for identifying inhibitors of cytochrome P450RAI” (Allergan, Inc., priority 2000, dated 2005).

Legend:
[1] = target: T1, P450RAI-1 (Homo sapiens, UniProt O43174); assay: P450RAI-1 cell-based inhibitor assay (intact HeLa); conditions: read-out: P450RAI INHIBITION DATA INTACT HELA IC50
T1 construct: expressed in transfected cells; host or cells: HeLa (stably transfected, hygromycin selection)
T1 sequence (O43174 1-497): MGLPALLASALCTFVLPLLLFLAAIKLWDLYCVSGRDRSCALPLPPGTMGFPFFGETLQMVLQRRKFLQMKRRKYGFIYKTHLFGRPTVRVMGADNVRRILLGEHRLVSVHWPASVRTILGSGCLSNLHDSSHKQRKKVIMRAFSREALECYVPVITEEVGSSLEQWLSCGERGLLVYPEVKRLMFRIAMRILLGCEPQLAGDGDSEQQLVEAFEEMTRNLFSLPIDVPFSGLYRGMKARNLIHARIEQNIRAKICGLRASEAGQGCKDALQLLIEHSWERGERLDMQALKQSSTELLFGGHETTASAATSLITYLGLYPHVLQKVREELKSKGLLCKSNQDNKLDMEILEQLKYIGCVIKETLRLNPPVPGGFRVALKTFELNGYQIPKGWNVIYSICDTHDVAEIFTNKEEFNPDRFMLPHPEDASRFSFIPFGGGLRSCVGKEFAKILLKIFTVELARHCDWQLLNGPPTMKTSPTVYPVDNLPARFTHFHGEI
Experimental: P450RAI-1 Cell-Based Inhibitor Assay:
P450RAI-1 stably transfected HeLa cells are maintained in […] tissue culture dishes in Modified Eagle's Medium (MEM) containing 10% Fetal Bovine Serum (FBS) and 100 μg/ml hygromycin. Exponentially growing cells are harvested by incubating in trypsin. Cells are then washed with 1× Phosphate Buffered Saline (PBS) and plated in a 48-well plate at 5×10^5 cells in 0.2 ml MEM medium containing 10% FBS and 0.05 μCi [^3H]-RA in the presence or absence of increasing concentrations of the test compounds. The compounds are diluted in 100% DMSO and then added in triplicate wells at either 10, 1 or 0.1 μM final concentration. As a positive control for RA metabolism inhibition, cells are also incubated with ketoconazole at 100, 10 and 1 μM. Cell are incubated for 3 hours at 37° C. […] The water soluble radioactivity is quantified using β-scintillation counter. IC50 values represent the concentration of inhibitor required to inhibit all-trans-RA metabolism by 50 percent and are derived manually from log-transformed data.

[2] = target: T2, RARα (Homo sapiens, UniProt P10276); assay: chimeric receptor transactivation assay, RARα; assay type: cell-based; conditions: EC50 line of EC50/(EFFICACY)/Kd, read-out: RAR α EC50
T2 sequence (P10276 183-417 limits assumed): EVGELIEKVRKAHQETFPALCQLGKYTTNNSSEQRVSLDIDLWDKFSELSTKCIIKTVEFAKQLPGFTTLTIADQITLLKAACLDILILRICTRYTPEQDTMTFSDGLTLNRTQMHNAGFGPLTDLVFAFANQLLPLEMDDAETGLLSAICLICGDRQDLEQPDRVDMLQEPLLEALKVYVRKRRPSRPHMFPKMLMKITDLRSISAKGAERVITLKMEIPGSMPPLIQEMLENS
Text: Assays described below measure the ability of a compound to bind to, and/or activate various retinoid receptor subtypes. When in these assays a compound binds to a given receptor subtype and activates the transcription of a reporter gene through that subtype, then the compound is considered an agonist of that receptor subtype. […] In the below described assays the ability of the compounds to bind to RARα, RARβ, RARγ, RXRα, RXRβ and RXRγ receptors, and the ability or inability of the compounds to activate transcription of a reporter gene through these receptor subtypes can be tested.
The results obtained in this assay are expressed in EC50 numbers, as they are also in the chimeric receptor transactivation assay. The results of ligand binding assay are expressed in Kd numbers.

In the case of `CC1(C)CC(C)(C)c2cc(C#Cc3ccc(C(=O)O)cc3)ccc2O1` [Compound 201], the IC50 [1] is reported as 520 nM and the EC50 [2] is reported as greater than 10 µM.
